From BindingDB's records for doi:10.1016/j.bmcl.2006.01.105 (Wyeth Research, 2006)

Test: Antiviral activity against Hepatitis C virus replicon in Huh7 cells

CCCC1(C(=O)O)CCc2c1[nH]c1c(Cl)ccc(Cl)c21 (stereo unspecified) [5,8-dichloro-3-propyl-1,2,3,4-tetrahydrocyclopenta[b]indole-3-carboxylic acid]
IC50: 27 µM
